Laboratory results from ChEMBL document CHEMBL4715829, “Heterodimeric Rifampicin-Tobramycin conjugates break intrinsic resistance of Pseudomonas aeruginosa to doxycycline and chloramphenicol in vitro and in a Galleria mellonella in vivo model” (Eur J Med Chem, 2019).
≈ marks a conversion by molar mass, not a printed value.

Legend:
Pseudomonas aeruginosa [1] = test: Antibacterial activity against Pseudomonas aeruginosa 264-101354 assessed as fractional inhibitory concentration incubated for 18 hrs in presence of chloramphenicol by broth microdilution assay; format: functional
Klebsiella pneumoniae [2] = test: Antibacterial activity against Klebsiella pneumoniae ATCC 13883 assessed as reduction in bacterial growth incubated for 18 hrs by broth microdilution assay; format: functional
Pseudomonas aeruginosa [3] = test: Antibacterial activity against Pseudomonas aeruginosa 200 harboring efflux mutant assessed as reduction in bacterial growth incubated for 18 hrs by broth microdilution assay; format: functional
Pseudomonas aeruginosa [4] = test: Antibacterial activity against Pseudomonas aeruginosa 101243 assessed as fractional inhibitory concentration incubated for 18 hrs in presence of chloramphenicol by broth microdilution assay; format: functional
Pseudomonas aeruginosa [5] = test: Antibacterial activity against Pseudomonas aeruginosa 262-101856 assessed as fractional inhibitory concentration index in presence of chloramphenicol incubated for 18 hrs by broth microdilution assay; format: functional
Pseudomonas aeruginosa [6] = test: Antibacterial activity against Pseudomonas aeruginosa 260-97103 assessed as fractional inhibitory concentration index in presence of chloramphenicol incubated for 18 hrs by broth microdilution assay; format: functional
Pseudomonas aeruginosa [7] = test: Antibacterial activity against Pseudomonas aeruginosa 101243 assessed as fractional inhibitory concentration incubated for 18 hrs in presence of doxycycline by broth microdilution assay; format: functional
Enterococcus faecium = test: Antibacterial activity against Enterococcus faecium ATCC 27270 assessed as reduction in bacterial growth incubated for 18 hrs by broth microdilution assay; format: functional
Pseudomonas aeruginosa [8] = test: Antibacterial activity against Pseudomonas aeruginosa 100036 assessed as fractional inhibitory concentration incubated for 18 hrs in presence of chloramphenicol by broth microdilution assay; format: functional
Pseudomonas aeruginosa [9] = test: Antibacterial activity against Pseudomonas aeruginosa 262-101856 assessed as fractional inhibitory concentration incubated for 18 hrs in presence of chloramphenicol by broth microdilution assay; format: functional
Pseudomonas aeruginosa [10] = test: Antibacterial activity against Pseudomonas aeruginosa 101243 assessed as fractional inhibitory concentration index in presence of chloramphenicol incubated for 18 hrs by broth microdilution assay; format: functional
Pseudomonas aeruginosa [11] = test: Antibacterial activity against Pseudomonas aeruginosa PAO1 assessed as fractional inhibitory concentration index in presence of Chloramphenicol incubated for 18 hrs by broth microdilution assay based checkerboard assay; format: functional
Pseudomonas aeruginosa [12] = test: Antibacterial activity against Pseudomonas aeruginosa 101885 assessed as fractional inhibitory concentration index in presence of chloramphenicol incubated for 18 hrs by broth microdilution assay; format: functional
Pseudomonas aeruginosa [13] = test: Potentiation of doxycycline-induced antibacterial activity against Pseudomonas aeruginosa PAO1 incubated for 18 hrs in presence of doxycycline by broth microdilution assay; format: functional, organism-based; settings: dose 1-32 µg/ml
Pseudomonas aeruginosa [14] = test: Antibacterial activity against Pseudomonas aeruginosa PAO1 assessed as fractional inhibitory concentration index in presence of Pleuromutilin incubated for 18 hrs by broth microdilution assay based checkerboard assay; format: functional
[15] = Cytotoxicity against human HEK293 cells assessed as cell viability at <10 uM incubated for 48 hrs by prestoblue assay; format: cell-based; settings: read-out: Activity
Pseudomonas aeruginosa [16] = test: Antibacterial activity against Pseudomonas aeruginosa PAO1 assessed as reduction in bacterial growth by measuring tobramycin MIC at <=10 uM in presence of tobramycin incubated for 18 hrs by broth microdilution assay based checkerboard assay (reference value: 1 microg/ml); format: functional; settings: dose microM <=10
Pseudomonas aeruginosa [17] = test: Antibacterial activity against Pseudomonas aeruginosa PAO1 assessed as reduction in bacterial growth by measuring pleuromutilin MIC at <=10 uM in presence of pleuromutilin incubated for 18 hrs by broth microdilution assay based checkerboard assay (reference value: 512 microg/ml); format: functional; settings: dose microM <=10
Klebsiella pneumoniae [18] = test: Antibacterial activity against Klebsiella pneumoniae ATCC 16381 assessed as reduction in bacterial growth incubated for 18 hrs by broth microdilution assay; format: functional
Klebsiella pneumoniae [19] = test: Antibacterial activity against Klebsiella pneumoniae ATCC 16381 assessed as potentiation of chloramphenicol-induced antibacterial activity by measuring chloramphenicol MIC at 10 uM incubated for 18 hrs in presence of chloramphenicol by broth microdilution assay (reference value: 1024 ug/ml); format: functional
Klebsiella pneumoniae [20] = test: Antibacterial activity against Klebsiella pneumoniae ATCC 16381 assessed as fractional inhibitory concentration index in presence of doxycycline incubated for 18 hrs by broth microdilution assay; format: functional
Pseudomonas aeruginosa [21] = test: Antibacterial activity against Pseudomonas aeruginosa 101885 assessed as fractional inhibitory concentration index in presence of doxycycline incubated for 18 hrs by broth microdilution assay; format: functional
Klebsiella pneumoniae [22] = test: Antibacterial activity against Klebsiella pneumoniae ATCC 16381 assessed as potentiation of doxycycline-induced antibacterial activity by measuring doxycycline MIC at 10 uM incubated for 18 hrs in presence of doxycycline by broth microdilution assay (reference value: 128 ug/ml); format: functional
Pseudomonas aeruginosa [23] = test: Antibacterial activity against Pseudomonas aeruginosa PAO1 assessed as fractional inhibitory concentration index in presence of Tigecycline incubated for 18 hrs by broth microdilution assay based checkerboard assay; format: functional
Pseudomonas aeruginosa [24] = test: Antibacterial activity against Pseudomonas aeruginosa 114228 assessed as fractional inhibitory concentration index in presence of doxycycline incubated for 18 hrs by broth microdilution assay; format: functional
Enterobacter cloacae [25] = test: Antibacterial activity against Enterobacter cloacae ATCC 117029 assessed as potentiation of chloramphenicol-induced antibacterial activity by measuring chloramphenicol MIC at 10 uM incubated for 18 hrs in presence of chloramphenicol by broth microdilution assay (reference value: 8 ug/ml); format: functional
Pseudomonas aeruginosa [26] = test: Antibacterial activity against Pseudomonas aeruginosa PAO1 assessed as reduction in bacterial growth by measuring vancomycin MIC at <=10 uM in presence of vancomycin incubated for 18 hrs by broth microdilution assay based checkerboard assay (reference value: 256 microg/ml); format: functional; settings: dose microM <=10
Pseudomonas aeruginosa [27] = test: Antibacterial activity against Pseudomonas aeruginosa PAO1 assessed as reduction in bacterial growth by measuring linezolid MIC at <=10 uM in presence of linezolid incubated for 18 hrs by broth microdilution assay based checkerboard assay (reference value: 1024 microg/ml); format: functional; settings: dose microM <=10
Pseudomonas aeruginosa [28] = test: Antibacterial activity against Pseudomonas aeruginosa PAO1 assessed as reduction in bacterial growth by measuring chloramphenicol MIC at <=[…] uM in presence of chloramphenicol incubated for 18 hrs by broth microdilution assay based checkerboard assay (reference value: […] microg/ml); format: functional; settings: dose microM <=10
Pseudomonas aeruginosa [29] = test: Potentiation of doxycycline-induced antibacterial activity against Pseudomonas aeruginosa 260-97103 incubated for 18 hrs in presence of doxycycline by broth microdilution assay; format: functional, organism-based; settings: dose 1-32 µg/ml
Pseudomonas aeruginosa [30] = test: Potentiation of doxycycline-induced antibacterial activity against Pseudomonas aeruginosa 264-101354 incubated for 18 hrs in presence of doxycycline by broth microdilution assay; format: functional, organism-based; settings: dose 1-32 µg/ml
Pseudomonas aeruginosa [31] = test: Antibacterial activity against Pseudomonas aeruginosa PAO1 assessed as fractional inhibitory concentration index in presence of Colistin incubated for 18 hrs by broth microdilution assay based checkerboard assay; format: functional
Enterobacter cloacae [32] = test: Antibacterial activity against Enterobacter cloacae ATCC 117029 assessed as fractional inhibitory concentration index in presence of doxycycline incubated for 18 hrs by broth microdilution assay; format: functional
Enterobacter cloacae [33] = test: Antibacterial activity against Enterobacter cloacae ATCC 117029 assessed as reduction in bacterial growth incubated for 18 hrs by broth microdilution assay; format: functional
Pseudomonas aeruginosa [34] = test: Antibacterial activity against Pseudomonas aeruginosa PAO1 assessed as fractional inhibitory concentration index in presence of Fosfomycin incubated for 18 hrs by broth microdilution assay based checkerboard assay; format: functional

Row | SMILES | FIC (Pseudomonas aeruginosa [1]) | MIC (Klebsiella pneumoniae [2]) | MIC (Pseudomonas aeruginosa [3]) | FIC (Pseudomonas aeruginosa [4]) | fractional inhibitory concentration index (FICI) (Pseudomonas aeruginosa [5]) | fractional inhibitory concentration index (FICI) (Pseudomonas aeruginosa [6]) | FIC (Pseudomonas aeruginosa [7]) | MIC (Enterococcus faecium) | fractional inhibitory concentration index (FICI) (Pseudomonas aeruginosa [10]) | fractional inhibitory concentration index (FICI) (Pseudomonas aeruginosa [11]) | fractional inhibitory concentration index (FICI) (Pseudomonas aeruginosa [14]) | viability at 48 h [15] | MIC (Pseudomonas aeruginosa [16]) | MIC (Pseudomonas aeruginosa [17]) | fractional inhibitory concentration index (FICI) (Pseudomonas aeruginosa [23]) | MIC (Pseudomonas aeruginosa [26]) | MIC (Pseudomonas aeruginosa [27]) | MIC (Pseudomonas aeruginosa [28]) | fractional inhibitory concentration index (FICI) (Pseudomonas aeruginosa [31]) | fractional inhibitory concentration index (FICI) (Pseudomonas aeruginosa [34]) | also measured
1 | NC[C@H]1O[C@H](O[C@H]2[C@H](O)[C@@H](O[C@H]3O[C@H](CO)[C@@H](O)[C@H](N)[C@H]3O)[C@H](N)C[C@@H]2N)[C@H](N)C[C@@H]1O [TOBRAMYCIN] | 0.5 | ≤ 0.25 µg/mL | 0.5 µg/mL (≈ 1.07 µM) | 0.5 | <=1 | 1 | 0.5 | 16 µg/mL (≈ 34.2 µM) | 1.5 | – | – | – | – | – | – | – | – | – | – | – | FIC (Pseudomonas aeruginosa [8]): 0.5; FIC (Pseudomonas aeruginosa [9]): <=0.5
2 | CO[C@H]1/C=C/O[C@@]2(C)Oc3c(C)c(O)c4c(O)c(c(/C=N/N5CCN(Cc6cn(CCCCCCO[C@@H]7[C@@H](O[C@H]8O[C@H](CO)[C@@H](O)[C@H](N)[C@H]8O)[C@H](N)C[C@H](N)[C@H]7O[C@H]7O[C@H](CN)[C@@H](O)C[C@H]7N)nn6)CC5)c(O)c4c3C2=O)NC(=O)/C(C)=C\C=C\[C@H](C)[C@H](O)[C@@H](C)[C@@H](O)[C@@H](C)[C@H](OC(C)=O)[C@@H]1C.Cl.Cl.Cl.Cl.Cl | – | > 32 µg/mL | 128 µg/mL | – | <0.125 | <0.141 | – | > 32 µg/mL | 0.187 | 0.06 | 0.28 | > 90% | 1 µg/mL | 128 µg/mL | 0.51 | 256 µg/mL | 128 µg/mL | 1 µg/mL | 0.53 | 0.15 | fractional inhibitory concentration index (FICI) (Pseudomonas aeruginosa [12]): 0.078; Activity (Pseudomonas aeruginosa [13]): Dose-dependent effect; MIC (Klebsiella pneumoniae [18]): > 128 µg/mL; MIC (Klebsiella pneumoniae [19]): 256 µg/mL; fractional inhibitory concentration index (FICI) (Klebsiella pneumoniae [20]): <0.516; fractional inhibitory concentration index (FICI) (Pseudomonas aeruginosa [21]): 0.078; MIC (Klebsiella pneumoniae [22]): 64 µg/mL; fractional inhibitory concentration index (FICI) (Pseudomonas aeruginosa [24]): <0.156; MIC (Enterobacter cloacae [25]): 1 µg/mL; Activity (Pseudomonas aeruginosa [29]): Dose-dependent effect; Activity (Pseudomonas aeruginosa [30]): Dose-dependent effect; fractional inhibitory concentration index (FICI) (Enterobacter cloacae [32]): 0.5; MIC (Enterobacter cloacae [33]): 16 µg/mL
3 | CO[C@H]1/C=C/O[C@@]2(C)Oc3c(C)c(O)c4c(O)c(c(/C=N/N5CCN(Cc6cn(CCCCO[C@@H]7[C@@H](O[C@H]8O[C@H](CO)[C@@H](O)[C@H](N)[C@H]8O)[C@H](N)C[C@H](N)[C@H]7O[C@H]7O[C@H](CN)[C@@H](O)C[C@H]7N)nn6)CC5)c(O)c4c3C2=O)NC(=O)/C(C)=C\C=C\[C@H](C)[C@H](O)[C@@H](C)[C@@H](O)[C@@H](C)[C@H](OC(C)=O)[C@@H]1C.O=C(O)C(F)(F)F.O=C(O)C(F)(F)F.O=C(O)C(F)(F)F.O=C(O)C(F)(F)F.O=C(O)C(F)(F)F | – | > 32 µg/mL | 256 µg/mL | – | – | – | – | 32 µg/mL | – | 0.28 | 1.03 | > 90% | 1 µg/mL | 512 µg/mL | 0.51 | 256 µg/mL | 1020 µg/mL | 8 µg/mL | 0.53 | 1.03 | –
4 | CO[C@H]1/C=C/O[C@@]2(C)Oc3c(C)c(O)c4c(O)c(c(/C=N/N5CCN(Cc6cn(CCCCCCCCCCCCO[C@@H]7[C@@H](O[C@H]8O[C@H](CO)[C@@H](O)[C@H](N)[C@H]8O)[C@H](N)C[C@H](N)[C@H]7O[C@H]7O[C@H](CN)[C@@H](O)C[C@H]7N)nn6)CC5)c(O)c4c3C2=O)NC(=O)/C(C)=C\C=C\[C@H](C)[C@H](O)[C@@H](C)[C@@H](O)[C@@H](C)[C@H](OC(C)=O)[C@@H]1C.O=C(O)C(F)(F)F.O=C(O)C(F)(F)F.O=C(O)C(F)(F)F.O=C(O)C(F)(F)F.O=C(O)C(F)(F)F | – | > 32 µg/mL | 128 µg/mL | – | <0.125 | <0.129 | – | > 32 µg/mL | 0.125 | 0.09 | 0.53 | > 90% | 1 µg/mL | 256 µg/mL | 0.51 | 128 µg/mL | 256 µg/mL | 2 µg/mL | 0.26 | 0.28 | fractional inhibitory concentration index (FICI) (Pseudomonas aeruginosa [12]): 0.07; Activity (Pseudomonas aeruginosa [13]): Dose-dependent effect; MIC (Klebsiella pneumoniae [18]): > 128 µg/mL; MIC (Klebsiella pneumoniae [19]): 256 µg/mL; fractional inhibitory concentration index (FICI) (Klebsiella pneumoniae [20]): <0.516; fractional inhibitory concentration index (FICI) (Pseudomonas aeruginosa [21]): 0.094; MIC (Klebsiella pneumoniae [22]): 64 µg/mL; fractional inhibitory concentration index (FICI) (Pseudomonas aeruginosa [24]): <0.187; MIC (Enterobacter cloacae [25]): 1 µg/mL; Activity (Pseudomonas aeruginosa [29]): Dose-dependent effect; Activity (Pseudomonas aeruginosa [30]): Dose-dependent effect; fractional inhibitory concentration index (FICI) (Enterobacter cloacae [32]): 0.375; MIC (Enterobacter cloacae [33]): 16 µg/mL
5 | CO[C@H]1/C=C/O[C@@]2(C)Oc3c(C)c(O)c4c(O)c(c(/C=N/N5CCN(C)CC5)c(O)c4c3C2=O)NC(=O)/C(C)=C\C=C\[C@H](C)[C@H](O)[C@@H](C)[C@@H](O)[C@@H](C)[C@H](OC(C)=O)[C@@H]1C [RIFAMPIN] | 0.5 | 16 µg/mL (≈ 19.4 µM) | 16 µg/mL (≈ 19.4 µM) | 0.5 | 1.5 | – | 0.5 | ≤ 0.25 µg/mL | 1.5 | – | – | – | – | – | – | – | – | – | – | – | FIC (Pseudomonas aeruginosa [8]): 0.5; FIC (Pseudomonas aeruginosa [9]): 0.5
